Among the test systems are NCI-H522 lung; SK-MEL-5 melanoma; OVCAR-5 ovarian; HT29 colon; MALME-3M melanoma; OVCAR-4 ovarian; MOLT-4 leukemia; U251 CNS; HCT-15 colon; CCRF-CEM leukemia.
What all share (experiment): DTP human tumour cell line panel, 48 h

Several values for one entry are separate records, joined by “and”; a condition that tells them apart may be missing. Equal values may be shown once.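 Five concentrations, 48 hours, 96-well plates. GI50 is the concentration that inhibits growth by half. At the TGI there is no net growth.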

In general, GI50 refers to the concentration that inhibits growth by half. What is called TGI is the concentration at which net growth stops. As for `CCOc1cc(/C=N\Nc2nnc(C)n2N)c(C)cc1N(CCCl)CCCl`, the GI50 is 0.461 µM with NCI-H522 lung; 0.259 µM with SK-MEL-5 melanoma; 3.05 µM in the experiment on OVCAR-5 ovarian; 0.648 µM in the experiment on HT29 colon; 0.377 µM in the experiment on MALME-3M melanoma; 0.338 µM with OVCAR-4 ovarian. The GI50 was 0.876 µM in the experiment with MOLT-4 leukemia, 0.747 µM in the experiment with U251 CNS, 1.28 µM in the experiment on HCT-15 colon and 0.655 µM in the experiment on CCRF-CEM leukemia. Also, the TGI with NCI-H522 lung was 5.8 µM; in the experiment with SK-MEL-5 melanoma, 1.05 µM; in the experiment with OVCAR-5 ovarian, above 100 µM; in the experiment on HT29 colon it was 7.17 µM; in the experiment with MALME-3M melanoma, 6.77 µM; in the experiment with OVCAR-4 ovarian, above 68.2 µM. In addition, the TGI in the experiment with MOLT-4 leukemia was 8.58 µM; in the experiment on U251 CNS it was above 28.5 µM; in the experiment with HCT-15 colon, above 44.5 µM; with CCRF-CEM leukemia, 32.5 µM.
For the molecule `COc1cc2c(=O)n(CCN)c3c4cc5c(cc4ccc3c2cc1OC)OCO5`, the 50% growth inhibitory concentration (GI50) with NCI-H522 lung was 0.167 µM; in the experiment on SK-MEL-5 melanoma, 0.834 µM; in the experiment on OVCAR-5 ovarian, 1.16 µM; with HT29 colon, 0.222 µM; in the experiment with MALME-3M melanoma, 0.692 µM; in the experiment with OVCAR-4 ovarian, 0.902 µM. Besides, the 50% growth inhibitory concentration (GI50) with MOLT-4 leukemia was 0.0671 µM; in the experiment on U251 CNS, 0.287 µM; in the experiment on HCT-15 colon, 0.651 µM; in the experiment with CCRF-CEM leukemia it was 0.182 µM. Besides, the TGI in the experiment on NCI-H522 lung is 1.83 µM; with SK-MEL-5 melanoma, 2.15 µM; in the experiment on OVCAR-5 ovarian, 2.59 µM; with HT29 colon it was 1.65 µM; with MALME-3M melanoma, 2.2 µM; in the experiment on OVCAR-4 ovarian, 2.55 µM. Also, the TGI in the experiment on MOLT-4 leukemia worked out at 0.863 µM; with U251 CNS it was 1.75 µM; in the experiment with HCT-15 colon, 2.19 µM.
`Cn1c2c(c3ccc(Cl)c(Cl)c31)C(C#N)C1(CCNCC1)NC2=O` (configuration not stated): the GI50 with NCI-H522 lung is 1.55 µM; in the experiment on SK-MEL-5 melanoma, 1.5 µM; in the experiment with OVCAR-5 ovarian, 1.49 µM; in the experiment on HT29 colon, 2.02 µM; in the experiment on MALME-3M melanoma it was 1.42 µM; in the experiment with OVCAR-4 ovarian it was 2.82 µM. Moreover, the GI50 in the experiment on MOLT-4 leukemia is 1.23 µM; with U251 CNS it was 2.94 µM; with HCT-15 colon, 2.4 µM; in the experiment with CCRF-CEM leukemia, 1.93 µM. In addition, the TGI with NCI-H522 lung was found to be 3.42 µM; in the experiment on SK-MEL-5 melanoma, 2.91 µM; in the experiment on OVCAR-5 ovarian it was 4.68 µM; in the experiment on MALME-3M melanoma it was 3.19 µM; with OVCAR-4 ovarian it was 8.8 µM; in the experiment on MOLT-4 leukemia it was 2.7 µM. The TGI in the experiment on U251 CNS came out at 10.7 µM; in the experiment on HCT-15 colon, 7.88 µM; in the experiment with CCRF-CEM leukemia, 4.72 µM.
Take `COC(=O)C(CC(=O)Nc1ccc(C)cc1)C(=O)C(=O)Nc1ccccc1C(C)C` (configuration not stated): the TGI with NCI-H522 lung, with SK-MEL-5 melanoma, in the experiment with OVCAR-5 ovarian, with HT29 colon, with MALME-3M melanoma and in the experiment with OVCAR-4 ovarian was above 100 µM throughout. Also, the TGI in the experiment with MOLT-4 leukemia, in the experiment with U251 CNS, in the experiment with HCT-15 colon and with CCRF-CEM leukemia was above 100 µM throughout.
As to `CCn1c(-c2nonc2N)nc2c(C#CC(C)(C)O)nc(OCCNC)cc21`, the GI50 in the experiment with NCI-H522 lung was 4.98 µM; with SK-MEL-5 melanoma, 5.19 µM; in the experiment on OVCAR-5 ovarian, 7.99 µM; with HT29 colon, 6.21 µM; in the experiment on MALME-3M melanoma, 7.69 µM; with OVCAR-4 ovarian, 9.89 µM. Moreover, the GI50 in the experiment with MOLT-4 leukemia is 8.68 µM; in the experiment with U251 CNS, 6.5 µM; in the experiment with HCT-15 colon it was 9.67 µM; in the experiment on CCRF-CEM leukemia it was 7.25 µM. Further, the concentration for total growth inhibition (TGI) in the experiment with NCI-H522 lung is 9.72 µM; in the experiment on SK-MEL-5 melanoma it was 12 µM; in the experiment on OVCAR-5 ovarian it was 24.9 µM; with HT29 colon it was 13.8 µM; with MALME-3M melanoma, 20.6 µM; with OVCAR-4 ovarian it was above 25 µM. Also, the TGI in the experiment on MOLT-4 leukemia, in the experiment on U251 CNS, in the experiment with HCT-15 colon and with CCRF-CEM leukemia was above 25 µM in each case.
On to `O=C1c2cc(Cl)ccc2-c2c1c1ccc([N+](=O)[O-])cc1c(=O)n2CCCBr`, for which the GI50 is 5.02 µM with NCI-H522 lung; 3.21 µM with SK-MEL-5 melanoma; above 100 µM in the experiment with OVCAR-5 ovarian; 12.5 µM with HT29 colon; 9.32 µM in the experiment on MALME-3M melanoma; 78.2 µM in the experiment on OVCAR-4 ovarian. For the same molecule, the GI50 in the experiment on MOLT-4 leukemia is 1.84 µM; with U251 CNS, 3.07 µM; in the experiment with HCT-15 colon it was 31.2 µM; in the experiment on CCRF-CEM leukemia, 0.625 µM. Further, the TGI with NCI-H522 lung was 43.4 µM; with SK-MEL-5 melanoma, 24.3 µM; in the experiment on OVCAR-5 ovarian, above 100 µM; in the experiment on HT29 colon, above 100 µM; with MALME-3M melanoma it was 82 µM; with OVCAR-4 ovarian, above 100 µM. Moreover, the TGI was 8.04 µM in the experiment on MOLT-4 leukemia, above 100 µM in the experiment with U251 CNS, above 100 µM in the experiment on HCT-15 colon and above 100 µM in the experiment with CCRF-CEM leukemia.
Take `COc1ccccc1/C=C/C(=O)c1ccccc1`: the GI50 in the experiment on NCI-H522 lung is 4.11 µM; in the experiment on SK-MEL-5 melanoma, 12.7 µM; in the experiment with OVCAR-5 ovarian, 18.9 µM; in the experiment on HT29 colon, 5.73 µM; in the experiment on MALME-3M melanoma it was 15.4 µM; with OVCAR-4 ovarian, 9.33 µM. The GI50 with MOLT-4 leukemia is 2.92 µM; in the experiment with U251 CNS it was 3.69 µM; in the experiment with HCT-15 colon it was 3.47 µM; in the experiment on CCRF-CEM leukemia, 2.87 µM. In addition, the TGI came out at 17.4 µM in the experiment with NCI-H522 lung; 25.7 µM in the experiment with SK-MEL-5 melanoma; 36.5 µM in the experiment with OVCAR-5 ovarian; 26.9 µM with HT29 colon; 31.6 µM in the experiment on MALME-3M melanoma; 25.9 µM in the experiment on OVCAR-4 ovarian. For the same molecule, the TGI in the experiment on MOLT-4 leukemia is above 36.6 µM; with U251 CNS, 15 µM; in the experiment with HCT-15 colon, 14.7 µM; in the experiment on CCRF-CEM leukemia, 11.5 µM.
With `Cc1sc2nc3c4ccccc4c(NCCCN(C)C)nn3c(=O)c2c1C`, the GI50 with NCI-H522 lung is 12.4 µM; with SK-MEL-5 melanoma it was 3.01 µM; in the experiment with OVCAR-5 ovarian it was 14.2 µM; in the experiment with HT29 colon, 1.52 µM; in the experiment with MALME-3M melanoma, 1.97 µM; in the experiment on OVCAR-4 ovarian, 12.1 µM. Moreover, the GI50 with MOLT-4 leukemia was 0.782 µM; in the experiment on U251 CNS, 6.66 µM; with HCT-15 colon, 6.73 µM; in the experiment on CCRF-CEM leukemia, 6.13 µM. The total growth inhibition concentration (TGI) with NCI-H522 lung amounted to 28.8 µM; in the experiment with SK-MEL-5 melanoma, 9.8 µM; in the experiment on OVCAR-5 ovarian, 28.5 µM; with HT29 colon, 3.36 µM; with MALME-3M melanoma, 4.96 µM; in the experiment with OVCAR-4 ovarian it was 24.9 µM. Moreover, the TGI amounted to 3.38 µM with MOLT-4 leukemia, 20 µM with U251 CNS, 20.8 µM in the experiment on HCT-15 colon and 17.2 µM in the experiment on CCRF-CEM leukemia.
For the molecule `CCOC(=O)c1s/c(=N\Nc2nc3ccccc3cc2C2OCCO2)n(Cc2ccccc2)c1C`, the TGI in the experiment with NCI-H522 lung, in the experiment on SK-MEL-5 melanoma, in the experiment on OVCAR-5 ovarian, in the experiment with HT29 colon, with MALME-3M melanoma and with OVCAR-4 ovarian was above 100 µM in each case. The TGI in the experiment on MOLT-4 leukemia, in the experiment with U251 CNS, in the experiment on HCT-15 colon and with CCRF-CEM leukemia was above 100 µM in each case.
Regarding `N#CCCN(CCC#N)c1ccc(C(Sc2ccccc2)C(NC(=O)c2cc([N+](=O)[O-])ccc2Cl)C(=O)Sc2ccccc2)cc1` (configuration not stated), the TGI with NCI-H522 lung was 5.5 µM and 1.6 µM; with SK-MEL-5 melanoma, 15.6 µM; in the experiment with OVCAR-5 ovarian, 11.7 µM; in the experiment on HT29 colon, 7.58 µM; in the experiment with MALME-3M melanoma, 22 µM; in the experiment with OVCAR-4 ovarian, 15.7 µM. For the same molecule, the TGI with MOLT-4 leukemia is 2.56 µM and 2.95 µM; in the experiment on U251 CNS it was 4.15 µM and 6.01 µM; in the experiment on HCT-15 colon it was 11.2 µM; in the experiment with CCRF-CEM leukemia, 0.765 µM and 0.479 µM. Besides, the GI50 was 2.59 µM in the experiment with HT29 colon, 3.92 µM in the experiment with OVCAR-4 ovarian, 0.565 µM in the experiment on MOLT-4 leukemia and 2.25 µM with HCT-15 colon.
For the molecule `CCOP(=O)(OCC)OC(C#N)c1ccc(-c2ccccc2)cc1` (configuration not stated), the TGI in the experiment on NCI-H522 lung is 28.5 µM; with SK-MEL-5 melanoma, 31.8 µM; in the experiment with OVCAR-5 ovarian it was above 100 µM; in the experiment with HT29 colon, 34.3 µM; in the experiment with MALME-3M melanoma, 41 µM; in the experiment on OVCAR-4 ovarian, 36.6 µM. The TGI with MOLT-4 leukemia turned out to be 29.9 µM; with U251 CNS, 28.9 µM; with HCT-15 colon, 32.8 µM; in the experiment on CCRF-CEM leukemia it was 49.7 µM.
Turning to `CC1C(=O)OCC2=CCN3CCC(OC(=O)C(C)C1(C)O)C23` (configuration not stated), the TGI in the experiment with NCI-H522 lung, in the experiment with SK-MEL-5 melanoma, in the experiment on OVCAR-5 ovarian, with HT29 colon, with MALME-3M melanoma and in the experiment with OVCAR-4 ovarian was above 100 µM in each case. The TGI with MOLT-4 leukemia, in the experiment on U251 CNS, in the experiment on HCT-15 colon and in the experiment with CCRF-CEM leukemia was above 100 µM in each case.
Turning to `Cc1cc2c(cc1C)N(C(=O)CCl)CCN2C(=O)CCl`, the concentration for 50% growth inhibition (GI50) in the experiment on NCI-H522 lung was 0.178 µM; in the experiment with SK-MEL-5 melanoma, 0.64 µM; in the experiment with OVCAR-5 ovarian, 1.5 µM; with HT29 colon, 0.301 µM; in the experiment with MALME-3M melanoma, 1.57 µM; in the experiment with OVCAR-4 ovarian it was 1.44 µM. For the same molecule, the 50% growth inhibitory concentration (GI50) in the experiment on MOLT-4 leukemia was 0.367 µM; with U251 CNS it was 1.39 µM; with HCT-15 colon, 0.45 µM; in the experiment on CCRF-CEM leukemia, 0.282 µM. Moreover, the TGI in the experiment on NCI-H522 lung is 0.348 µM; in the experiment on SK-MEL-5 melanoma it was 1.93 µM; in the experiment with OVCAR-5 ovarian it was 3.08 µM; in the experiment with HT29 colon, 0.943 µM; with MALME-3M melanoma, 4.5 µM; in the experiment on OVCAR-4 ovarian it was 3.37 µM. For the same molecule, the TGI in the experiment with MOLT-4 leukemia turned out to be 1.74 µM; in the experiment with U251 CNS, 2.88 µM; with HCT-15 colon, 2.42 µM; in the experiment with CCRF-CEM leukemia it was 0.856 µM.
